Measured values from patent US20240247035A1, “STAPLED ANTIMICROBIAL PEPTIDES (STAMPS) AND USES THEREOF” (Lytica Therapeutics, Inc., priority 2021, published 2024).
≈ marks a conversion by molar mass, not a printed value. Bridge positions count the residues as written; N and C are the ends. Square brackets hold non-standard residues; d marks the D form. Peptide text beside a SMILES is read from it. Phe(4-tBu) = CC(C)(C)c1ccc(C[C@H](N)C(=O)O)cc1; S5 = C=CCCC[C@](C)(N)C(=O)O

Assays:
[1] = 90 minute cytotoxicity assay (LDH release), renal toxicity; type: cell-based; details: human
Experimental: (§1) Cell culture: RPTEC were maintained in MEM media supplemented with growth factors. HEPG2 cell line was maintained in Eagle's Minimum Essential Medium (EMEM) supplemented with fetal bovine serum to a final concentration of 10%.
90 minute cytotoxicity assay: Cells were plated in a 96-well format, and after overnight incubation, media was replaced with fresh media. Serial dilutions of StAMPs from a 5 mg/mL water stock, or vehicle, were added to the cells in a final volume of 100 μl. After incubating at 37° C. for 90 min, 50 μl of cell culture media was transferred to a clear 96-well plate, incubated with 50 μl of lactate dehydrogenase (LDH) assay reagent for 10 min, and absorbance measured at 490 nm on a microplate reader.
(§2) Renal toxicity was measured after 90 minutes of incubation, while liver toxicity was measured after 48 hours of incubation with StAMPs. N/A=not tested.

[2] = 48 hours cytotoxicity assay (CellTiter-Glo), liver toxicity; type: cell-based; details: human
Experimental: as §1
48 hours cytotoxicity assay: Cells were plated in a 96-well format, and after 4 hour incubation to allow attachment, serial dilutions of StAMPs from a 5 mg/mL water stock, or vehicle, were then added to the cells in a final volume of 100 μl. After incubating at 37° C. for 48 hours, 100 μl of CellTiter-Glo® reagent was added to the cells, and the plates were incubated 10 minutes at room temperature. Luminescence was then measured on a microplate reader.
as §2

SMILES	IC50 at 90 min [1] [µg/mL]	IC50 at 48 hours [2] [µg/mL]
CC[C@H](C)[C@H](NC(=O)[C@H](CCCCN)NC(=O)[C@H](CCCCN)NC(=O)CNC(=O)[C@H](CCCCN)NC(=O)[C@]1(C)CCCC=CCCC[C@](C)(NC(=O)CN)C(=O)N[C@@H](Cc2ccccc2)C(=O)N[C@@H](CO)C(=O)N[C@@H](CCCCN)C(=O)N1)C(=O)N[C@@H](CCCCN)C(=O)N[C@@H](CC(N)=O)C(=O)N[C@@H](CC(C)C)C(=O)N[C@@]1(C)CCCC=CCCC[C@@](C)(C(=O)N[C@@H](CCCCN)C(=O)NCC(N)=O)NC(=O)CNC(=O)[C@H](CO)NC(=O)[C@H]([C@@H](C)CC)NC1=O [compound 1] (H-G[S5]FSK[S5]KGKKIKNL[S5]ISG[S5]KG-NH2; staple 2-6, 15-19)	48 (≈ 21 µM)	47 (≈ 20.5 µM)
CC[C@H](C)[C@H](NC(=O)[C@H](CCCCN)NC(=O)[C@H](CCCCN)NC(=O)CNC(=O)[C@H](CCCCN)NC(=O)[C@]1(C)CCCC=CCCC[C@](C)(NC(=O)CN)C(=O)N[C@@H](CCCCN)C(=O)N[C@@H](CO)C(=O)N[C@@H](CCCCN)C(=O)N1)C(=O)N[C@@H](CCCCN)C(=O)N[C@@H](CC(N)=O)C(=O)N[C@@H](CC(C)C)C(=O)N[C@@]1(C)CCCC=CCCC[C@@](C)(C(=O)N[C@@H](CCCCN)C(=O)NCC(N)=O)NC(=O)CNC(=O)[C@H](CO)NC(=O)[C@H]([C@@H](C)CC)NC1=O [compound 2] (H-G[S5]KSK[S5]KGKKIKNL[S5]ISG[S5]KG-NH2; staple 2-6, 15-19)	203 (≈ 89.4 µM)	109 (≈ 48 µM)
CC[C@H](C)[C@H](NC(=O)[C@H](CCCCN)NC(=O)[C@H](CCCCN)NC(=O)CNC(=O)[C@H](CCCCN)NC(=O)[C@]1(C)CCCC=CCCC[C@](C)(NC(=O)CN)C(=O)N[C@@H](Cc2ccccc2)C(=O)N[C@@H](CO)C(=O)N[C@@H](CCCCN)C(=O)N1)C(=O)N[C@@H](CCCCN)C(=O)N[C@@H](CC(N)=O)C(=O)N[C@@H](CC(C)C)C(=O)N[C@@]1(C)CCCC=CCCC[C@@](C)(C(=O)N[C@@H](CCCCN)C(=O)NCC(N)=O)NC(=O)[C@H](CCCCN)NC(=O)[C@H](CO)NC(=O)[C@H]([C@@H](C)CC)NC1=O [compound 3] (H-G[S5]FSK[S5]KGKKIKNL[S5]ISK[S5]KG-NH2; staple 2-6, 15-19)	119 (≈ 50.4 µM)	57 (≈ 24.1 µM)
CC[C@H](C)[C@H](NC(=O)[C@H](CCCCN)NC(=O)[C@H](CCCCN)NC(=O)CNC(=O)[C@H](CCCCN)NC(=O)[C@]1(C)CCCC=CCCC[C@](C)(NC(=O)CN)C(=O)N[C@@H](Cc2ccccc2)C(=O)N[C@@H](CO)C(=O)N[C@@H](CCCCN)C(=O)N1)C(=O)N[C@@H](CCCCN)C(=O)N[C@@H](CC(N)=O)C(=O)N[C@@H](CC(C)C)C(=O)N[C@@]1(C)CCCC=CCCC[C@@](C)(C(=O)N[C@@H](CCCCN)C(=O)N[C@@H](CCCCN)C(N)=O)NC(=O)CNC(=O)[C@H](CO)NC(=O)[C@H]([C@@H](C)CC)NC1=O [compound 4] (H-G[S5]FSK[S5]KGKKIKNL[S5]ISG[S5]KK-NH2; staple 2-6, 15-19)	34 (≈ 14.4 µM)	24 (≈ 10.2 µM)
CC[C@H](C)[C@H](NC(=O)[C@H](CCCCN)NC(=O)[C@H](CCCCN)NC(=O)CNC(=O)[C@H](CCCCN)NC(=O)[C@]1(C)CCCC=CCCC[C@](C)(NC(=O)CN)C(=O)N[C@@H](CCCCN)C(=O)N[C@@H](CO)C(=O)N[C@@H](CCCCN)C(=O)N1)C(=O)N[C@@H](CCCCN)C(=O)N[C@@H](CC(N)=O)C(=O)N[C@@H](CC(C)C)C(=O)N[C@@]1(C)CCCC=CCCC[C@@](C)(C(=O)N[C@@H](CCCCN)C(=O)NCC(N)=O)NC(=O)[C@H](CCCCN)NC(=O)[C@H](CO)NC(=O)[C@H]([C@@H](C)CC)NC1=O [compound 5] (H-G[S5]KSK[S5]KGKKIKNL[S5]ISK[S5]KG-NH2; staple 2-6, 15-19)	180 (≈ 76.9 µM)	100 (≈ 42.7 µM)
CC[C@H](C)[C@H](NC(=O)[C@H](CCCCN)NC(=O)[C@H](CCCCN)NC(=O)CNC(=O)[C@H](CCCCN)NC(=O)[C@]1(C)CCCC=CCCC[C@](C)(NC(=O)CN)C(=O)N[C@@H](CCCCN)C(=O)N[C@@H](C(C)C)C(=O)N[C@@H](CCCCN)C(=O)N1)C(=O)N[C@@H](CCCCN)C(=O)N[C@@H](CC(N)=O)C(=O)N[C@@H](CC(C)C)C(=O)N[C@@]1(C)CCCC=CCCC[C@@](C)(C(=O)N[C@@H](CCCCN)C(=O)NCC(N)=O)NC(=O)CNC(=O)[C@H](CO)NC(=O)[C@H]([C@@H](C)CC)NC1=O [compound 6] (H-G[S5]KVK[S5]KGKKIKNL[S5]ISG[S5]KG-NH2; staple 2-6, 15-19)	215 (≈ 94.2 µM)	200 (≈ 87.6 µM)
CC[C@H](C)[C@H](NC(=O)[C@H](CCCCN)NC(=O)[C@H](CCCCN)NC(=O)[C@@H](NC(=O)[C@H](CCCCN)NC(=O)[C@]1(C)CCCC=CCCC[C@](C)(NC(=O)CN)C(=O)N[C@@H](CCCCN)C(=O)N[C@@H](CO)C(=O)N[C@@H](CCCCN)C(=O)N1)C(C)C)C(=O)N[C@@H](CCCCN)C(=O)N[C@@H](CC(N)=O)C(=O)N[C@@H](CC(C)C)C(=O)N[C@@]1(C)CCCC=CCCC[C@@](C)(C(=O)N[C@@H](CCCCN)C(=O)NCC(N)=O)NC(=O)CNC(=O)[C@H](CO)NC(=O)[C@H]([C@@H](C)CC)NC1=O [compound 7] (H-G[S5]KSK[S5]KVKKIKNL[S5]ISG[S5]KG-NH2; staple 2-6, 15-19)	191 (≈ 82.6 µM)	72 (≈ 31.1 µM)
CC[C@H](C)[C@@H]1NC(=O)[C@@](C)(NC(=O)[C@H](CC(C)C)NC(=O)[C@H](CC(N)=O)NC(=O)[C@H](CCCCN)NC(=O)[C@@H](NC(=O)[C@H](CCCCN)NC(=O)[C@H](CCCCN)NC(=O)CNC(=O)[C@H](CCCCN)NC(=O)[C@]2(C)CCCC=CCCC[C@](C)(NC(=O)CN)C(=O)N[C@@H](CCCCN)C(=O)N[C@@H](CO)C(=O)N[C@@H](CCCCN)C(=O)N2)C(C)C)CCCC=CCCC[C@@](C)(C(=O)N[C@@H](CCCCN)C(=O)NCC(N)=O)NC(=O)CNC(=O)[C@H](CO)NC1=O [compound 8] (H-G[S5]KSK[S5]KGKKVKNL[S5]ISG[S5]KG-NH2; staple 2-6, 15-19)	> 200	> 200
CC[C@H](C)[C@@H]1NC(=O)[C@@](C)(NC(=O)[C@H](CC(C)C)NC(=O)[C@H](CC(N)=O)NC(=O)[C@H](CCCCN)NC(=O)[C@H](CC(C)C)NC(=O)[C@H](CCCCN)NC(=O)[C@H](CCCCN)NC(=O)CNC(=O)[C@H](C)NC(=O)[C@]2(C)CCCC=CCCC[C@](C)(NC(=O)CN)C(=O)N[C@@H](CCCCN)C(=O)N[C@@H](CO)C(=O)N[C@@H](CCCCN)C(=O)N2)CCCC=CCCC[C@@](C)(C(=O)N[C@@H](CCCCN)C(=O)N[C@@H](CC(N)=O)C(N)=O)NC(=O)CNC(=O)[C@H](CO)NC1=O [compound 9] (H-G[S5]KSK[S5]AGKKLKNL[S5]ISG[S5]KN-NH2; staple 2-6, 15-19)	184 (≈ 81 µM)	107 (≈ 47.1 µM)
CC[C@H](C)[C@H](NC(=O)[C@H](CCCCN)NC(=O)[C@H](CCCCN)NC(=O)CNC(=O)[C@H](C)NC(=O)[C@]1(C)CCCC=CCCC[C@](C)(NC(=O)CN)C(=O)N[C@@H](Cc2ccccc2)C(=O)N[C@@H](CO)C(=O)N[C@@H](CCCCN)C(=O)N1)C(=O)N[C@@H](CCCCN)C(=O)N[C@@H](CC(N)=O)C(=O)N[C@@H](CC(C)C)C(=O)N[C@@]1(C)CCCC=CCCC[C@@](C)(C(=O)N[C@@H](CCCCN)C(=O)N[C@@H](CC(N)=O)C(N)=O)NC(=O)CNC(=O)[C@H](CO)NC(=O)[C@H]([C@@H](C)CC)NC1=O [compound 10] (H-G[S5]FSK[S5]AGKKIKNL[S5]ISG[S5]KN-NH2; staple 2-6, 15-19)	18 (≈ 7.86 µM)	16 (≈ 6.99 µM)
CC[C@H](C)[C@H](NC(=O)[C@H](CCCCN)NC(=O)[C@H](CCCCN)NC(=O)CNC(=O)[C@H](C)NC(=O)[C@]1(C)CCCC=CCCC[C@](C)(NC(=O)CN)C(=O)N[C@@H](CCCCN)C(=O)N[C@@H](CO)C(=O)N[C@@H](CCCCN)C(=O)N1)C(=O)N[C@@H](CCCCN)C(=O)N[C@@H](CC(N)=O)C(=O)N[C@@H](CC(C)C)C(=O)N[C@@]1(C)CCCC=CCCC[C@@](C)(C(=O)N[C@@H](CCCCN)C(=O)N[C@@H](CC(N)=O)C(N)=O)NC(=O)CNC(=O)[C@H](CO)NC(=O)[C@H]([C@@H](C)CC)NC1=O [compound 11] (H-G[S5]KSK[S5]AGKKIKNL[S5]ISG[S5]KN-NH2; staple 2-6, 15-19)	186 (≈ 81.9 µM)	125 (≈ 55 µM)
CC[C@H](C)[C@@H]1NC(=O)[C@@](C)(NC(=O)[C@H](CC(C)C)NC(=O)[C@H](CC(N)=O)NC(=O)[C@H](CCCCN)NC(=O)[C@H](CC(C)C)NC(=O)[C@H](CCCCN)NC(=O)[C@H](CCCCN)NC(=O)CNC(=O)[C@H](C)NC(=O)[C@]2(C)CCCC=CCCC[C@](C)(NC(=O)CN)C(=O)N[C@@H](CCCCN)C(=O)N[C@@H](CO)C(=O)N[C@@H](CCCCN)C(=O)N2)CCCC=CCCC[C@@](C)(C(=O)N[C@@H](CCCCN)C(=O)NCC(N)=O)NC(=O)CNC(=O)[C@H](CO)NC1=O [compound 12] (H-G[S5]KSK[S5]AGKKLKNL[S5]ISG[S5]KG-NH2; staple 2-6, 15-19)	> 200	91 (≈ 41.1 µM)
CC[C@H](C)[C@@H]1NC(=O)[C@@](C)(NC(=O)[C@H](CC(C)C)NC(=O)[C@H](CC(N)=O)NC(=O)[C@H](CCCCN)NC(=O)[C@H](Cc2ccc(C(C)(C)C)cc2)NC(=O)[C@H](CCCCN)NC(=O)[C@H](CCCCN)NC(=O)CNC(=O)[C@H](CCCCN)NC(=O)[C@]2(C)CCCC=CCCC[C@](C)(NC(=O)CN)C(=O)N[C@@H](CCCCN)C(=O)N[C@@H](CO)C(=O)N[C@@H](CCCCN)C(=O)N2)CCCC=CCCC[C@@](C)(C(=O)N[C@@H](CCCCN)C(=O)N[C@@H](CC(N)=O)C(N)=O)NC(=O)CNC(=O)[C@H](CO)NC1=O [compound 18] (H-G[S5]KSK[S5]KGKK[Phe(4-tBu)]KNL[S5]ISG[S5]KN-NH2; staple 2-6, 15-19)		21 (≈ 8.68 µM)
